Data reported in patent US11091471B2, “Isoxazolyl ether derivatives as GABAA α5 PAM” (Hoffmann-La Roche Inc., priority 2016, dated 2021).

Molecular target: h-GABA-A α5β3γ2 (Homo sapiens (Human), UniProt P18507+P31644)
Experiment: Two-electrode voltage clamp electrophysiology in Xenopus oocytes expressing GABAA receptors, modulation of GABA EC20 current
Format: cell-based
Details: for Efficacy (GABA) %: % modulation of GABA EC20; for Fold increase: positive control at a maximally effective concentration, 3-6 oocytes per 96-well plate
Method: Xenopus laevis oocytes at maturation stages V-VI were used for the expression of cloned mRNA encoding GABAA receptor subunits. Oocytes ready for RNA micro-injection were bought from Ecocyte, Castrop-Rauxel, Germany and stored in modified Barth's medium (composition in mM: NaCl 88, KCl 1, NaHCO3 2.4, HEPES 10, MgSO4 0.82, CaNO3 0.33, CaCl2 0.33, pH=7.5) at 20° C. until the experiment.
Oocytes were plated in 96-well plates to be used in an automated instrument (Robo-ocyte, MultiChannelSystems, Reutlingen, Germany) for microinjection and electrophysiological recordings. Approximately 50 nl of an aqueous solution containing the RNA transcripts for the subunits of the desired GABAA receptor was injected into each oocyte.
Electrophysiological experiments were performed on days 3 to 5 after the micro-injection of mRNA. During the experiment the oocytes were constantly superfused by a solution containing (in mM) NaCl 90, KCl 1, HEPES 5, MgCl2 1, CaCl2 1 (pH 7.4). Oocytes were impaled by two glass microelectrodes (resistance: 0.4 MΩ) which were filled with a solution containing KCl 1M+K-acetate 1.5 M and voltage-clamped to −80 mV. The recordings were performed at room temperature using the Roboocyte two-electrode voltage clamp system (Multichannelsystem). After an initial equilibration period of 1.5 min GABA was added for 1.5 min at a concentration evoking approximately 20% of a maximal current response (EC20). After another rest interval of 2.5 min GABA was again added evoking a response of similar amplitude and shape. […] Current traces were recorded at a digitization rate of 10 Hz during and shortly before and after the GABA application.
Each compound and concentration was tested on at least 3 oocytes.
For the analysis, the digitized current traces of the first and second GABA response were superimposed and, if necessary, rescaled to equal maximal amplitudes. The ratio between the two responses during the time interval of test compound application was calculated point by point. The extremum of the resulting “ratio trace” was taken as the efficacy (“Fold increase”) of the compound expressed as “% modulation of GABA EC20” (100*(Fold increase−1)).

[1] = Table 1, GABA at EC20, test compound at approx. 30 fold its Ki, Xenopus oocytes
[2] = Table 2, reference compounds, GABAA α5β3γ2 overexpressing oocytes

h-GABA-A α5β3γ2, sequence (P31644 32-462): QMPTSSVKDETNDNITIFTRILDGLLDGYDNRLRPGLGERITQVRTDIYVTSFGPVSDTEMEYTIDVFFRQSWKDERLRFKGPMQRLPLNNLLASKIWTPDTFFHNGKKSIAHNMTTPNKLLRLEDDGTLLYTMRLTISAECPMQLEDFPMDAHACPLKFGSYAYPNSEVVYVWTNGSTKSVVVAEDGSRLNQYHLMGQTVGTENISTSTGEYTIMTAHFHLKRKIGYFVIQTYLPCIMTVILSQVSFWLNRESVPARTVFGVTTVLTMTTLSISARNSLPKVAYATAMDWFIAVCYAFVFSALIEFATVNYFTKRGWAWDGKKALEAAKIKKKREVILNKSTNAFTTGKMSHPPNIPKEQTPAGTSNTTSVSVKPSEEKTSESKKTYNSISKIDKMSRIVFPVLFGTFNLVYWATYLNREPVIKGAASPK
h-GABA-A α5β3γ2, sequence (P28472 26-473 partner): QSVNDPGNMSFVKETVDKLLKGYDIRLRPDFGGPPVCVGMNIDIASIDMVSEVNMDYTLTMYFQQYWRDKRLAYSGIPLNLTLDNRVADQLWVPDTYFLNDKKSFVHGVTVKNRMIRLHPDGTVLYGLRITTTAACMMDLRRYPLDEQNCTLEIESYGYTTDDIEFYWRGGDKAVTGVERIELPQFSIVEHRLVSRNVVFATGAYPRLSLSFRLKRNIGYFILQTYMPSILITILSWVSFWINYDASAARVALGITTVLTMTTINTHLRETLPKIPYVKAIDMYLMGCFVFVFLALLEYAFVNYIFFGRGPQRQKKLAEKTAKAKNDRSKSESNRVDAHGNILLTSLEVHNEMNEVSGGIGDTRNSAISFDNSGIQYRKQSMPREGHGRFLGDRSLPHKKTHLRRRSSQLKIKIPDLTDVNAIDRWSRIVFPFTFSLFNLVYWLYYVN
h-GABA-A α5β3γ2, sequence (P18507 40-475): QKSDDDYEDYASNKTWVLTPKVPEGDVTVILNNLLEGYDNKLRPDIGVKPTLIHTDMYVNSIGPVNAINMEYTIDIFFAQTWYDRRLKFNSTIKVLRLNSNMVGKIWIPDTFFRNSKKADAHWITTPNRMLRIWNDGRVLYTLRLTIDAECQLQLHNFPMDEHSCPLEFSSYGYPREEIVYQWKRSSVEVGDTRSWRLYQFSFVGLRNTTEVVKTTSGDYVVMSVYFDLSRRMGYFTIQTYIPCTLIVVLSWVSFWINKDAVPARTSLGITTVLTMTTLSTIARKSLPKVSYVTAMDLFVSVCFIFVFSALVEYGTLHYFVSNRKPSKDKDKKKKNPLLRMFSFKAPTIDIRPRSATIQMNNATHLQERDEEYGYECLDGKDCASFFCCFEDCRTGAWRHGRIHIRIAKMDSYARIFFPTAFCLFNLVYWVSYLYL

Row | SMILES | Fold increase h-GABA-A α5β3γ2 oocyte [1] | further results
1 | Cc1ccc(-c2noc(C)c2COc2ccc(C(=O)NCC3(C)COC3)nn2)cn1 [Example 49, 6-((5-methyl-3-(6-methylpyridin-3-yl)isoxazol-4-yl)methoxy)-N-((3-methyloxetan-3-yl)methyl)pyridazine-3-carboxamide] | 1.7 | 
2 | Cc1ccc(-c2noc(C)c2COc2ccc(C(=O)N3CCC(F)(F)CC3)nn2)cn1 [Example 53, (4,4-difluoropiperidin-1-yl)(6-((5-methyl-3-(6-methylpyridin-3-yl)isoxazol-4-yl)methoxy)pyridazin-3-yl)methanone] | 1.8 | 
3 | Cc1ccc(-c2noc(C)c2COc2ccc(C(=O)N[C@H]3C[C@H](OCC(F)F)C3)nn2)cn1 [Example 170, trans-N-3-((2,2-difluoroethoxy)cyclobutyl)-6-((5-methyl-3-(6-methylpyridin-3-yl)isoxazol-4-yl)methoxy)pyridazine-3-carboxamide] | 1.6 | 
4 | CCc1onc(-c2ccc(C)nc2)c1COc1ccc(C(=O)NC2CCS(=O)(=O)CC2)cn1 [Example 120, N-(1,1-dioxidotetrahydro-2H-thiopyran-4-yl)-6-((5-ethyl-3-(6-methylpyridin-3-yl)isoxazol-4-yl)methoxy)pyridine-3-carboxamide] | 2.6 | 
5 | Cc1ccc(-c2noc(C)c2COc2cc3c(cn2)C(=O)N(C2CCS(=O)(=O)CC2)C3)cn1 [Example 91, 2-(1,1-dioxothian-4-yl)-6-((5-methyl-3-(6-methylpyridin-3-yl)-1,2-oxazol-4-yl)methoxy)-1H-pyrrolo[3,4-c]pyridin-3-one] | 2.4 | 
6 | Cc1ccc(-c2noc(C)c2COc2ccc(C(=O)N[C@H]3CCOC[C@@H]3O)cn2)cn1 [Example 127, N-((3R,4S)-3-hydroxytetrahydropyran-4-yl)-6-((5-methyl-3-(6-methyl-3-pyridyl)isoxazol-4-yl)methoxy)pyridine-3-carboxamide] | 1.5 | 
7 | Cc1ncc(-c2noc(C)c2COc2ccc(C(=O)NC3CCOCC3)cn2)cc1F [Example 143, 6-((3-(5-fluoro-6-methyl-3-pyridyl)-5-methyl-isoxazol-4-yl)methoxy)-N-tetrahydropyran-4-yl-pyridine-3-carboxamide] | 1.2 | 
8 | Cc1onc(-c2ccccn2)c1COc1ccc(C(=O)NC2CCOCC2)cn1 [RO-272, reference compound] |  | Efficacy (GABA) % (Table 2, reference compounds): −32%; Fold increase h-GABA-A α5β3γ2 oocyte [2]: 0.68
9 | CCC[C@@H](CO)NC(=O)c1cnc(OCc2c(-c3ccc(C)nc3)noc2C)cn1 [Example 14, N-((1S)-1-(hydroxymethyl)butyl)-5-((5-methyl-3-(6-methyl-3-pyridyl)isoxazol-4-yl)methoxy)pyrazine-2-carboxamide] | 2.6 | 
10 | Cc1onc(-c2ccccn2)c1COc1ccc(C(=O)NC2CCOCC2)nn1 [RO-094, reference compound] |  | Efficacy (GABA) % (Table 2, reference compounds): −18%; Fold increase h-GABA-A α5β3γ2 oocyte [2]: 0.82
11 | Cc1ccc(-c2noc(C)c2COc2ccc(C(N)=O)cn2)cn1 [Example 17, 6-((5-methyl-3-(6-methylpyridin-3-yl)isoxazol-4-yl)methoxy)nicotinamide] | 1.6 | 
12 | Cc1ccc(-c2noc(C)c2COc2cnc(C(=O)NC3CCS(=O)(=O)CC3)cn2)cn1 [Example 72, N-(1,1-dioxothian-4-yl)-5-((5-methyl-3-(6-methyl-3-pyridyl)isoxazol-4-yl)methoxy)pyrazine-2-carboxamide] | 2.3 | 
13 | Cc1ncc2n1-c1ccc(Cl)cc1C(c1ccccc1F)=NC2 [Midazolam, reference compound] |  | potentiation of the GABA-induced current (positive control (PAM) at a maximally effective concentration): ~150%; Fold increase: ~2.5
14 | COC(=O)c1cc2c(cn1)[nH]c1ccccc12 [β-CCM, reference compound] |  | inhibition of the GABA-evoked current (positive control (NAM) at a maximally effective concentration): ~50%; Fold increase: ~0.5
